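Abbreviation: GI50, concentration required for 50% inhibition of growth. TGI is the concentration that stops growth completely.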
Legend:
Experiment in all cases: NCI-60 cell line screen, 384-well format
DU-145 prostate = tested on: DU-145 prostate
SK-MEL-5 melanoma = tested on: SK-MEL-5 melanoma
COLO 205 colon = tested on: COLO 205 colon
OVCAR-4 ovarian = tested on: OVCAR-4 ovarian
SNB-75 CNS = tested on: SNB-75 CNS
EKVX NSCLC = tested on: EKVX NSCLC
HCT-15 colon = tested on: HCT-15 colon
U251 glioblastoma = tested on: U251 glioblastoma
IGROV1 ovarian = tested on: IGROV1 ovarian
RXF 393 renal = tested on: RXF 393 renal
SF-539 CNS = tested on: SF-539 CNS
NCI-H522 lung = tested on: NCI-H522 lung
HCC-2998 colon = tested on: HCC-2998 colon
HOP-92 NSCLC = tested on: HOP-92 NSCLC
UO-31 renal = tested on: UO-31 renal
SR leukemia = tested on: SR leukemia
SK-MEL-28 melanoma = tested on: SK-MEL-28 melanoma
A549 NSCLC = tested on: A549 NSCLC
SN12C renal = tested on: SN12C renal
CAKI-1 renal = tested on: CAKI-1 renal
MDA-MB-468 breast = tested on: MDA-MB-468 breast
OVCAR-8 ovarian = tested on: OVCAR-8 ovarian
MDA-MB-231 breast = tested on: MDA-MB-231 breast
A498 renal = tested on: A498 renal
ACHN renal = tested on: ACHN renal
SW-620 colon = tested on: SW-620 colon
SNB-19 CNS = tested on: SNB-19 CNS
SF-295 CNS = tested on: SF-295 CNS
HT29 colon = tested on: HT29 colon
786-0 renal = tested on: 786-0 renal
OVCAR-5 ovarian = tested on: OVCAR-5 ovarian
PC-3 prostate = tested on: PC-3 prostate
MOLT-4 leukemia = tested on: MOLT-4 leukemia
HOP-62 NSCLC = tested on: HOP-62 NSCLC
NCI-H226 lung = tested on: NCI-H226 lung
T-47D breast = tested on: T-47D breast
HL-60(TB) leukemia = tested on: HL-60(TB) leukemia
SF-268 CNS = tested on: SF-268 CNS
UACC-62 melanoma = tested on: UACC-62 melanoma
LOX IMVI melanoma = tested on: LOX IMVI melanoma
NCI-H322M lung = tested on: NCI-H322M lung
NCI-H460 NSCLC = tested on: NCI-H460 NSCLC
NCI-H23 lung = tested on: NCI-H23 lung
SK-OV-3 ovarian = tested on: SK-OV-3 ovarian
MDA-MB-435 melanoma = tested on: MDA-MB-435 melanoma
OVCAR-3 ovarian = tested on: OVCAR-3 ovarian
NCI/ADR-RES ovarian = tested on: NCI/ADR-RES ovarian
TK-10 renal = tested on: TK-10 renal
HS 578T breast = tested on: HS 578T breast
M14 melanoma = tested on: M14 melanoma
HCT-116 colon = tested on: HCT-116 colon
UACC-257 melanoma = tested on: UACC-257 melanoma
RPMI-8226 leukemia = tested on: RPMI-8226 leukemia
MALME-3M melanoma = tested on: MALME-3M melanoma
KM12 colon = tested on: KM12 colon
BT-549 breast = tested on: BT-549 breast
MCF7 breast = tested on: MCF7 breast

COc1nc(N)nc2c1ncn2[C@@H]1O[C@H](CO)[C@@H](O)[C@@H]1O
GI50 (DU-145 prostate): > 100 µM | TGI (DU-145 prostate): > 100 µM | GI50 (SK-MEL-5 melanoma): > 100 µM | TGI (SK-MEL-5 melanoma): > 100 µM | GI50 (COLO 205 colon): > 100 µM | TGI (COLO 205 colon): > 100 µM | GI50 (OVCAR-4 ovarian): > 100 µM | TGI (OVCAR-4 ovarian): > 100 µM | GI50 (SNB-75 CNS): > 100 µM | TGI (SNB-75 CNS): > 100 µM | GI50 (EKVX NSCLC): > 100 µM | TGI (EKVX NSCLC): > 100 µM | GI50 (HCT-15 colon): > 100 µM | TGI (HCT-15 colon): > 100 µM | GI50 (U251 glioblastoma): > 100 µM | TGI (U251 glioblastoma): > 100 µM | GI50 (IGROV1 ovarian): > 100 µM | TGI (IGROV1 ovarian): > 100 µM | GI50 (RXF 393 renal): > 100 µM | TGI (RXF 393 renal): > 100 µM | GI50 (SF-539 CNS): > 100 µM | TGI (SF-539 CNS): > 100 µM | GI50 (NCI-H522 lung): > 100 µM | TGI (NCI-H522 lung): > 100 µM | GI50 (HCC-2998 colon): > 100 µM | TGI (HCC-2998 colon): > 100 µM | GI50 (HOP-92 NSCLC): > 100 µM | TGI (HOP-92 NSCLC): > 100 µM | GI50 (UO-31 renal): > 100 µM | TGI (UO-31 renal): > 100 µM | GI50 (SR leukemia): > 100 µM | TGI (SR leukemia): > 100 µM | GI50 (SK-MEL-28 melanoma): > 100 µM | TGI (SK-MEL-28 melanoma): > 100 µM | GI50 (A549 NSCLC): > 100 µM | TGI (A549 NSCLC): > 100 µM | GI50 (SN12C renal): > 100 µM | TGI (SN12C renal): > 100 µM | GI50 (CAKI-1 renal): > 100 µM | TGI (CAKI-1 renal): > 100 µM | GI50 (MDA-MB-468 breast): > 100 µM | TGI (MDA-MB-468 breast): > 100 µM | GI50 (OVCAR-8 ovarian): > 100 µM | TGI (OVCAR-8 ovarian): > 100 µM | GI50 (MDA-MB-231 breast): > 100 µM | TGI (MDA-MB-231 breast): > 100 µM | GI50 (A498 renal): > 100 µM | TGI (A498 renal): > 100 µM | GI50 (ACHN renal): > 100 µM | TGI (ACHN renal): > 100 µM | GI50 (SW-620 colon): > 100 µM | TGI (SW-620 colon): > 100 µM | GI50 (SNB-19 CNS): > 100 µM | TGI (SNB-19 CNS): > 100 µM | GI50 (SF-295 CNS): > 100 µM | TGI (SF-295 CNS): > 100 µM | GI50 (HT29 colon): > 100 µM | TGI (HT29 colon): > 100 µM | GI50 (786-0 renal): > 100 µM | TGI (786-0 renal): > 100 µM | GI50 (OVCAR-5 ovarian): > 100 µM | TGI (OVCAR-5 ovarian): > 100 µM | GI50 (PC-3 prostate): > 100 µM | TGI (PC-3 prostate): > 100 µM | GI50 (MOLT-4 leukemia): 1310 nM | TGI (MOLT-4 leukemia): 2590 nM | GI50 (HOP-62 NSCLC): > 100 µM | TGI (HOP-62 NSCLC): > 100 µM | GI50 (NCI-H226 lung): > 100 µM | TGI (NCI-H226 lung): > 100 µM | GI50 (T-47D breast): > 100 µM | TGI (T-47D breast): > 100 µM | GI50 (HL-60(TB) leukemia): > 100 µM | TGI (HL-60(TB) leukemia): > 100 µM | GI50 (SF-268 CNS): > 100 µM | TGI (SF-268 CNS): > 100 µM | GI50 (UACC-62 melanoma): > 100 µM | TGI (UACC-62 melanoma): > 100 µM | GI50 (LOX IMVI melanoma): > 100 µM | TGI (LOX IMVI melanoma): > 100 µM | GI50 (NCI-H322M lung): > 100 µM | TGI (NCI-H322M lung): > 100 µM | GI50 (NCI-H460 NSCLC): > 100 µM | TGI (NCI-H460 NSCLC): > 100 µM | GI50 (NCI-H23 lung): > 100 µM | TGI (NCI-H23 lung): > 100 µM | GI50 (SK-OV-3 ovarian): > 100 µM | TGI (SK-OV-3 ovarian): > 100 µM | GI50 (MDA-MB-435 melanoma): > 100 µM | TGI (MDA-MB-435 melanoma): > 100 µM | GI50 (OVCAR-3 ovarian): > 100 µM | TGI (OVCAR-3 ovarian): > 100 µM | GI50 (NCI/ADR-RES ovarian): > 100 µM | TGI (NCI/ADR-RES ovarian): > 100 µM | GI50 (TK-10 renal): > 100 µM | TGI (TK-10 renal): > 100 µM | GI50 (HS 578T breast): > 100 µM | TGI (HS 578T breast): > 100 µM | GI50 (M14 melanoma): > 100 µM | TGI (M14 melanoma): > 100 µM | GI50 (HCT-116 colon): > 100 µM | TGI (HCT-116 colon): > 100 µM | GI50 (UACC-257 melanoma): > 100 µM | TGI (UACC-257 melanoma): > 100 µM | GI50 (RPMI-8226 leukemia): > 100 µM | TGI (RPMI-8226 leukemia): > 100 µM | GI50 (MALME-3M melanoma): > 100 µM | TGI (MALME-3M melanoma): > 100 µM | GI50 (KM12 colon): > 100 µM | TGI (KM12 colon): > 100 µM | GI50 (BT-549 breast): > 100 µM | TGI (BT-549 breast): > 100 µM | GI50 (MCF7 breast): > 100 µM | TGI (MCF7 breast): > 100 µM

Reference: PubChem BioAssay (NCI)
